pKi: −log10 of the molar value.

Ki data for 19 compounds are collected here from BindingDB's records for doi:10.1124/jpet.103.064907 (Abbott Laboratories, 2004).

The target in this experiment is T1, P2X purinoceptor 3 (Homo sapiens, UniProt P56373).
T1 sequence (P56373 whole entry): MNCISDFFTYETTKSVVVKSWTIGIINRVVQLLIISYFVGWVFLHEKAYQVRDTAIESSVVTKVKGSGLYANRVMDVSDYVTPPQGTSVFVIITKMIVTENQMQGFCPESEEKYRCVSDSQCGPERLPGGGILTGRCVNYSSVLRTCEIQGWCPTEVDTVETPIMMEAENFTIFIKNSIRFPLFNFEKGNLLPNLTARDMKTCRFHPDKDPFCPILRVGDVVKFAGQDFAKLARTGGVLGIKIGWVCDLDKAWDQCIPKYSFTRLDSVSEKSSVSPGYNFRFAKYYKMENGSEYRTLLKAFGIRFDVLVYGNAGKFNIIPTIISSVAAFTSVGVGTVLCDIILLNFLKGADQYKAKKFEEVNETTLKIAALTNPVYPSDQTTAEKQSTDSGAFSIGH
For the compound `Nc1ncnc2c1ncn2[C@@H]1O[C@H](COP(=O)(O)OP(=O)(O)OP(=O)(O)O)[C@@H](O)[C@H]1O`, the pKi was 7.84.

Turning to `Nc1ncnc2c1ncn2[C@H]1C[C@H](O)[C@@H](COP(=O)(O)OP(=O)(O)OP(=O)(O)O)O1`, the pKi is 6.74. Against the preceding compound, the pKi is 1.10 log units lower.

The compound `Nc1c(S(=O)(=O)O)cc(Nc2ccc(Nc3nc(Cl)nc(Nc4ccccc4S(=O)(=O)O)n3)c(S(=O)(=O)O)c2)c2c1C(=O)c1ccccc1C2=O` showed a pKi of 5.60.

In the case of `Nc1ncnc2c1ncn2[C@H]1CC[C@@H](COP(=O)(O)OP(=O)(O)OP(=O)(O)O)O1` [2',3'-Dideoxyadenosine Triphosphate (Ddatp)], the negative-log Ki (pKi) is 6.39.

`O=c1ccn([C@@H]2O[C@H](COP(=O)(O)OP(=O)(O)OP(=O)(O)O)[C@@H](O)[C@H]2O)c(=O)[nH]1` [({[({[5-(2,4-dioxo-1,2,3,4-tetrahydropyrimidin-1-yl)-3,4-dihydroxyoxolan-2-yl]methoxy}(hydroxy)phosphoryl)oxy](hydroxy)phosphoryl}oxy)phosphonic acid] gave a pKi of 5.58. This pKi lies 0.81 log units lower than the previous one.

With `Nc1ncnc2c1ncn2[C@@H]1O[C@H](COP(=O)(O)CP(=O)(O)OP(=O)(O)O)[C@@H](O)[C@H]1O` [({[({[5-(6-amino-9H-purin-9-yl)-3,4-dihydroxyoxolan-2-yl]methoxy}(hydroxy)phosphoryl)methyl](hydroxy)phosphoryl}oxy)phosphonic acid], the pKi was 8.05.

For `Nc1ncnc2c1ncn2[C@@H]1O[C@H](COP(=O)(O)OP(=O)(O)O)[C@@H](O)[C@H]1O` [ADP], the pKi was 6.34.

In the case of `CSc1nc(N)c2ncn([C@@H]3O[C@H](COP(=O)(O)OP(=O)(O)OP(=O)(O)O)[C@@H](O)[C@H]3O)c2n1` [ATP, 2-meS], the pKi is 8.09.

Compound `Nc1ncnc2c1ncn2[C@@H]1O[C@H](COP(=O)(O)OP(=O)(O)S)[C@@H](O)[C@H]1O` (some centres undefined) [CAS_123848] had a pKi of 6.53.

The compound `Nc1ncnc2c1ncn2C1OC(COP(=O)(O)OP(=O)(O)OP(=O)(O)OC2C(CO)OC(n3cnc4c(N)ncnc43)C2O)C(O)C1O` (centres undefined) [CAS_3035419] had a pKi of 5.78.

Consider `CN(C(Cc1ccc(OS(=O)(=O)c2cccc3cnccc23)cc1)C(=O)N1CCN(c2ccccc2)CC1)S(=O)(=O)c1cccc2cnccc12` (centres undefined) [KN-62], for which the pKi was < 5.00.

With `Nc1ncnc2c1ncn2[C@@H]1O[C@H](COP(=O)(O)OP(=O)(O)OP(=O)(O)O)C[C@H]1O` [NSC_0], the pKi is 7.33.

`Nc1ncnc2c1ncn2[C@@H]1O[C@H](COP(=O)(O)OP(=O)(O)OP(=O)(O)O)[C@@H](OC(=O)c2ccc(C(=O)c3ccccc3)cc2)[C@H]1O` [NSC_0] had a negative logarithm of the Ki (pKi) of 8.11.

As for `Nc1ncnc2c1ncn2[C@@H]1O[C@H](CO[P@](=O)(O)O[P@](=O)(O)OC[C@H]2O[C@@H](n3cnc4c(N)ncnc43)[C@H](O)[C@@H]2O)[C@@H](O)[C@H]1O` [NSC_0], the pKi is < 5.00.

`Nc1ncnc2c1ncn2C1OC(COP(=O)(O)OP(=O)(O)OP(=O)(O)OP(=O)(O)OP(=O)(O)OP(=O)(O)OCC2OC(n3cnc4c(N)ncnc43)C(O)C2O)C(O)C1O` (centres undefined) [NSC_123694]: the pKi is 8.32.

Take `Nc1ncnc2c1ncn2C1OC(COP(=O)(O)OP(=O)(O)OP(=O)(O)OP(=O)(O)OP(=O)(O)OCC2OC(n3cnc4c(N)ncnc43)C(O)C2O)C(O)C1O` (centres undefined) [NSC_440210]: the negative-log Ki (pKi) was 7.98.

For `Nc1ncnc2c1ncn2C1OC(COP(=O)(O)OP(=O)(O)OP(O)(O)=S)C(O)C1O` (centres undefined) [NSC_440317], the pKi was 7.39.

Compound `Nc1ncnc2c1ncn2[C@@H]1O[C@H](COP(=O)(O)OP(=O)(O)CP(=O)(O)O)[C@@H](O)[C@H]1O` [adenylylmethylenediphosphonate] gave a pKi of 6.41.

For `Nc1ncnc2c1ncn2[C@@H]1O[C@H](COP(=O)(O)CP(=O)(O)O)[C@@H](O)[C@H]1O` [alpha, beta-methyleneadenosine 5 -diphosphate], the pKi is < 5.00.

The pKi is the Ki on a negative log10 scale, so that one unit is a factor of ten.
